From patent publication US20030096237A1, “Determination of the ability of patients to respond to a tumor treatment” (priority 2000, published 2003)

Test system: CNCM I-2545
Assay: oligonucleotide array analysis of IFN-α modulated gene expression
Format: cell-based, human
Description: All these cell lines were cultured in RPMI medium supplemented with 10% FCS, glutamine (2 mM), sodium pyruvate (1 mM), non-essential amino acids and HEPES buffer (10 mM) (all from GIBCO Life Sciences, Paisley, UK). When confluent, the cells were passaged by trypsinization.
Cultured melanoma cells were harvested by scraping and total cellular RNA was extracted. 10 μg from each sample were used directly as templates for cDNA synthesis using a commercial kit (Roche Molecular Biochemicals, Rotkreuz, Switzerland). The T7 promoter sequence incorporated into the cDNA synthesis primer allowed template amplification and biotin labeling by in vitro transcription using a commercial kit (Affymetrix, Santa Clara, Calif.). After alkaline heat fragmentation […] was hybridised to the array (Affymetrix, Santa Clara, Calif.) and all subsequent steps were performed following standard procedures as supplied with the arrays. Raw data were collected with a confocal laser scanner (Hewlett Packard, Palo Alto, Calif.) using GeneChip software v3.1 (Affymetrix, Santa Clara, Calif.).
Raw data were normalized based on the total chip signal obtained upon hybridisation of ME15 cell line cDNA. This array was selected because: i) the 5′/3′ intensity ratio of control genes was smaller than 3; ii)>25% of the genes are called “present” by Genechip; iii) the image appearance is homogeneous with low background and no sign of mechanical chip damage.
The normalized average difference (nAD) between the signals of the perfect and of the mismatch probesets for each gene was used as the expression level of a given gene. At least one nAD value in a pairwise comparison of data has to exceed 50 to be included. Based on nAD, change factors related to IFN-α exposure were also calculated. Negative nAD values were set to 20 in order to avoid the calculation of artificially high modifications. In order to exclude artefacts, only genes with robust change factors, greater than 2-fold, were included in the analysis. […] Genes were clustered according to their mode of regulation.
Total cellular RNA was extracted from the sensitive and resistant melanoma cell lines identified above, reverse transcribed and processed for hybridization to an oligonucleotide array (Hu6800FL, PN 900183) containing probe sets derived from 7000 full-length human genes. Expression levels for each gene were calculated as normalized average difference (nAD, see materials and methods).
Patterns of genes expressed in IFN-α sensitive and resistant melanoma cell lines were investigated upon 48 hour culture in the presence of IFN-α. CNCM I-2546 and CNCM I-2545 were studied in detail.
In Table 2 below, CNCM I-2546 and CNCM I-2545 cultured for 48 hours in the absence or in the presence of 100 U/ml IFN-α were used to assay cytokine modulated gene expression as matched with data obtained in fibrosarcoma cells. This analysis yielded six clusters of genes. […] Data are presented as average difference of signal intensity between match and mismatch probesets.
In Table 3 below, CNCM I-2546 and CNCM I-2545 cell lines cultured for 48 hours in the absence or in the presence of 100 U/ml IFN-α were used to identify novel cytokine induced genes whose expression was not found to be modulated in fibrosarcoma cells. Cluster 1 includes genes inducible in the CNCM I-2546 sensitive but not in the CNCM I-2545 resistant cell line. Cluster 2 comprises genes inducible in both lines. Data are presented as average difference of signal intensity between match and mismatch probesets.

[1] = CNCM I-2545, IFN-α 100 U/ml 48 hours

change factor (CF) D32050 alanyl-trna synthetase [1]: −0.92
change factor (CF) D78132 rheb gene, ras-related gtp binding protein gene [1]: 1.88
change factor (CF) L13210 mac-2 binding protein [1]: −0.22
change factor (CF) L35249 vacuolar h + -atpase mr 56,000 subunit (ho57) [1]: 16.85
change factor (CF) L37043 casein kinase i epsilon [1]: 0.01
change factor (CF) L40387 thyroid receptor interactor (trip14) [1]: −4.2
change factor (CF) L42243 ifnar2 gene (interferon receptor) [1]: −2.1
change factor (CF) M19650 2′,3′-cyclic nucleotide 3prime-phosphodiesterase [1]: −0.38
change factor (CF) U18018 ela enhancer binding protein (ela-f) [1]: 0.15
change factor (CF) U47025 fetal brain glycogen phosphorylase b [1]: −0.45
change factor (CF) U50327 protein kinase c substrate 80k-h gene (prkcsh) [1]: −0.7
change factor (CF) U50648 interferon-inducible rna-dependent protein kinase (pkr) [1]: −1.3
change factor (CF) U65579 mitochondrial nadh dehydrogenase-ubiquinone [1]: −0.01
change factor (CF) U69126 fuse binding protein 2 (fbp2) [1]: 0.39
change factor (CF) U70063 human acid ceramidase [1]: 2.48
change factor (CF) U91316 acyl-coa thioester hydrolase [1]: 0.69
change factor (CF) X70848 protein phosphatase 1, catalytic subunit [1]: 8.42
change factor (CF) X90846 mixed lineage kinase 2 [1]: −4.95
change factor (CF) X95325 dna binding protein a variant [1]: −1.51
change factor (CF) Z26491 gene catechol o-methyltransferase [1]: −0.31
change factor (CF) Z47055 farnesyl pyrophosphate synthetase like [1]: 1.02
Substance: IFN-α
change factor (CF) D28137 bst-2 [1]: 1.38
change factor (CF) D49824 hla-b null allele [1]: −0.97
change factor (CF) D50914 EST [1]: −2
change factor (CF) HG658 major histocompatibility complex, class 1 c [1]: −1.6
change factor (CF) HG1612 macmarcks [1]: −0.16
change factor (CF) HG2917 major histocompatibility complex, class i, e [1]: −0.1
change factor (CF) J00105 beta-2 microglobulin gene [1]: 0.26
change factor (CF) J00212 leukocyte interferon (ifn-alpha) [1]: −4.3
change factor (CF) J03909 gamma-interferon-inducible protein (ip-30) [1]: 2.38
change factor (CF) J04164 interferon-inducible protein 27-sep [1]: 0
change factor (CF) J04182 lysosomal membrane glycoprotein-1 (lamp1) [1]: 6.33
change factor (CF) J04444 cytochrome c-1 gene [1]: 1.56
change factor (CF) K01900 lymphocyte interferon alpha type 201 [1]: −6.8
change factor (CF) K03515 neuroleukin [1]: −0.17
change factor (CF) L07633 interferon-gamma [1]: 11.5
change factor (CF) M13755 interferon-induced 17-kda/15-kda protein [1]: 0.55
change factor (CF) M30818 interferon-induced cellular resistance mediator protein [1]: 0
change factor (CF) M31013 nonmuscle myosin heavy chain (nmhc) [1]: −0.43
change factor (CF) M34338 spermidine synthase [1]: −0.7
change factor (CF) M60784 ul snrnp-specific protein [1]: 2.59
change factor (CF) M65028 heterogeneous nuclear ribonucleoprotein a/b [1]: 1.29
change factor (CF) M79462 pml-1 [1]: −9.05
change factor (CF) M92642 alpha-1 type xvi collagen (col16a1) [1]: 4.75
change factor (CF) M94880 mhc class i (hla-a*8001) [1]: −0.31
change factor (CF) M97935 transcription factor isgf-3 [1]: −2.6
change factor (CF) M98343 amplaxin (ems1) [1]: 2.15
change factor (CF) S81914 iex-1 = radiation-inducible immediate-early gene [1]: 0.05
change factor (CF) U01824 glutamate/aspartate transporter [1]: −8.69
change factor (CF) U09579 melanoma differentiation associated (mda-6) [1]: 0
change factor (CF) U18009 chromosome 17q21 clone lf113 [1]: −0.59
change factor (CF) U22970 16-jun gene, interferon-inducible peptide (6-16) [1]: 0.2
change factor (CF) U41515 dss1 [1]: 5.15
change factor (CF) U51127 interferon regulatory factor 5 [1]: −1.88
change factor (CF) U52513 rig-g [1]: −13.45
change factor (CF) U53830 interferon regulatory factor 7a [1]: −4.15
change factor (CF) U61263 acetolactate synthase homolog [1]: −0.36
change factor (CF) U65932 extracellular matrix protein 1 (ecm1) [1]: −1.34
change factor (CF) U72206 guanine nucleotide regulatory factor (lfp40) [1]: −0.47
change factor (CF) U72882 interferon-induced leucine zipper protein (ifp35) [1]: −3.63
change factor (CF) U78525 human eukaryotic translation initiation factor (eif3) [1]: 1.25
change factor (CF) X04412 plasma gelsolin [1]: 0
change factor (CF) X07730 prostate specific antigen [1]: −1.75
change factor (CF) X15949 interferon regulatory factor-2 (irf-2) [1]: 0
change factor (CF) X57351 1-8d gene from interferon-inducible gene family [1]: 0.09
change factor (CF) X57522 ring4 cdna [1]: −1.92
change factor (CF) X67325 p27 [1]: 0
change factor (CF) X76538 mpv17 [1]: −0.31
change factor (CF) X96401 rox protein [1]: −1.76
change factor (CF) Y00264 amyloid a4 precursor [1]: 0.09
change factor (CF) Z56281 interferon regulatory factor 3 [1]: −2
nAD D28137 bst-2 (Table 3, CNCM I-2545 (+) IFN-α 100 U/ml 48 hours, (−) 37): 88
change factor (CF) D28137 bst-2 (Table 3, CNCM I-2545, IFN-α 100 U/ml 48 hours): 1.38
